These molecules were tested against T1, human KV 1.5 (IKur) (Homo sapiens, UniProt P22460) (assay: block of IKur current in patch clamped L-929 cells expressing human Kv1.5). Conditions: L929, 0.3 μM; patch clamped mammalian L-929 cells stably expressing human Kv1.5; read-out: KV1_5% Inh L929 @0.3 μM.
T1 construct: expressed in transfected cells
Assay type: cell-based

T1 sequence (P22460 whole entry): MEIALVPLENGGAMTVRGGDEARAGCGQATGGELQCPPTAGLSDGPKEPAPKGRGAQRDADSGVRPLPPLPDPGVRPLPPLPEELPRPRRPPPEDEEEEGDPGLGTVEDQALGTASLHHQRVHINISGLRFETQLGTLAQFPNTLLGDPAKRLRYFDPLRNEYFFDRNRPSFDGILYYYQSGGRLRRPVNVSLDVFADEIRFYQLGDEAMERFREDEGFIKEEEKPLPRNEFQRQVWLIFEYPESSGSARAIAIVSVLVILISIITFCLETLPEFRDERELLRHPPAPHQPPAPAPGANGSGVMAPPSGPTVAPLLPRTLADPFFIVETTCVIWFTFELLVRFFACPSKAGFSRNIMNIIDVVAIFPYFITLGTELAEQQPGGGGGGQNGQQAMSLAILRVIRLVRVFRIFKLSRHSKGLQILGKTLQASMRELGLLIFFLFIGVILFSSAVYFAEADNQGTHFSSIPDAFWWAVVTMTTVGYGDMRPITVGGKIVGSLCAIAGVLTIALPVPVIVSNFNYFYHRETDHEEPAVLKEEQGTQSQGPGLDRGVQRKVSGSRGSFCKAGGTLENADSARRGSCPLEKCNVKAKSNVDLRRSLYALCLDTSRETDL

Compared with `Nc1ncc(-c2nc(NCc3ccccn3)c3c(-c4ccccc4)ccn3n2)cc1S(N)(=O)=O` [Example 130, 2-amino-5-(5-phenyl-4-((pyridin-2-ylmethyl)amino)pyrrolo [2,1-f][1,2,4]triazin-2-yl)pyridine-3-sulfonamide], `COc1ncc(-c2nc(NCc3ccccn3)c3c(-c4ccccc4)ccn3n2)cc1S(N)(=O)=O` [Example 147, 2-methoxy-5-(5-phenyl-4-(pyridin-2-ylmethylamino)pyrrolo[1,2-f][1,2,4]triazin-2-yl)pyridine-3-sulfonamide] is lower in inhibition at 0.3 µM: 97.6% for the first, 97.3% for the second.

Going from `NS(=O)(=O)c1cncc(-c2nc(NCC3CCCCC3)c3c(-c4ccccc4)ccn3n2)c1` [Example 131, 5-(4-((cyclohexylmethyl)amino)-5-phenylpyrrolo [2,1-f][1,2,4]triazin-2-yl)pyridine-3-sulfonamide] to `NS(=O)(=O)c1cncc(-c2nc(NCC3(O)CCCCC3)c3c(-c4ccccc4)ccn3n2)c1` [Example 145, 5-(4-((1-hydroxycyclohexyl)methylamino)-5-phenylpyrrolo [1,2-f][1,2,4]triazin-2-yl)pyridine-3-sulfonamide], the inhibition at 0.3 µM falls from 83.9% to 62.5%.

First: CCOc1ncc(-c2nc(NCc3ccccn3)c3c(-c4ccccc4)ccn3n2)cc1S(N)(=O)=O [Example 134, 2-ethoxy-5-(5-phenyl-4-((pyridin-2-ylmethyl)amino)pyrrolo [2,1-f][1,2,4]triazin-2-yl)pyridine-3-sulfonamide]
Second: COc1ncc(-c2nc(NCc3cnccn3)c3c(-c4ccccc4)ccn3n2)cc1S(N)(=O)=O [Example 137, 2-methoxy-5-(5-phenyl-4-((pyrazin-2-ylmethyl)amino)pyrrolo [2,1-f][1,2,4]triazin-2-yl)pyridine-3-sulfonamide]
The inhibition at 0.3 µM of the first is higher: 95% for the first, 82.9% for the second.

First: NS(=O)(=O)c1cncc(-c2nc(NCc3ccccn3)c3c(-c4ccccc4C(F)(F)F)ccn3n2)c1 [Example 135, 5-(4-((pyridin-2-ylmethyl)amino)-5-(2-(trifluoromethyl)phenyl)pyrrolo[2,1-f][1,2,4]triazin-2-yl)pyridine-3-sulfonamide]
Second: NS(=O)(=O)c1cncc(-c2nc(NCc3ccccn3)c3c(-c4ccccc4F)ccn3n2)c1 [Example 166, 5-(5-(2-fluorophenyl)-4-((pyridin-2-ylmethyl)amino)pyrrolo [2,1-f][1,2,4]triazin-2-yl)pyridine-3-sulfonamide]
The inhibition at 0.3 µM of the first is higher: 98.5% for the first, 98% for the second.

First: NS(=O)(=O)c1cncc(-c2nc(NCc3ccccn3)c3c(-c4ccccc4Cl)ccn3n2)c1 [Example 136, 5-(5-(2-chlorophenyl)-4-((pyridin-2-ylmethyl)amino)pyrrolo [2,1-f][1,2,4]triazin-2-yl)pyridine-3-sulfonamide]
Second: NS(=O)(=O)c1cncc(-c2nc(NCc3ccccn3)c3c(-c4cccnc4)ccn3n2)c1 [Example 148, 5-(4-(pyridin-2-ylmethylamino)-5-(pyridin-3-yl)pyrrolo [1,2-f][1,2,4]triazin-2-yl)pyridine-3-sulfonamide]
The inhibition at 0.3 µM of the first is higher: 98.7% for the first, 84.8% for the second.

First: NS(=O)(=O)c1cncc(-c2nc(NCc3ncccc3F)c3c(-c4ccccc4)ccn3n2)c1 [Example 138, 5-(4-(((3-fluoropyridin-2-yl)methyl)amino)-5-phenylpyrrolo [2,1-f][1,2,4]triazin-2-yl) pyridine-3-sulfonamide]
Second: NS(=O)(=O)c1cncc(-c2nc(NCc3ncccn3)c3c(-c4ccccc4)ccn3n2)c1 [Example 152, 5-(5-phenyl-4-((pyrimidin-2-ylmethyl)amino)pyrrolo[2,1-f][1,2,4]triazin-2-yl)pyridine-3-sulfonamide]
The inhibition at 0.3 µM of the first is lower: 96.2% for the first, 97.3% for the second.

Going from `COc1cccc(CNc2nc(-c3cnc(OC)c(S(N)(=O)=O)c3)nn3ccc(-c4ccccc4)c23)n1` [Example 139, 2-methoxy-5-(4-(((6-methoxypyridin-2-yl)methyl)amino)-5-phenylpyrrolo [2,1-f][1,2,4]triazin-2-yl)pyridine-3-sulfonamide] to `COc1cccc(CNc2nc(-c3cncc(S(N)(=O)=O)c3)nn3ccc(-c4ccccc4)c23)n1` [Example 140, 5-(4-(((6-methoxypyridin-2-yl)methyl)amino)-5-phenylpyrrolo [2,1-f][1,2,4]triazin-2-yl)pyridine-3-sulfonamide], the inhibition at 0.3 µM rises from 98.5% to 99.1%.

Going from `N#Cc1cccc(F)c1CNc1nc(-c2cncc(S(N)(=O)=O)c2)nn2ccc(-c3ccccc3)c12` [Example 141, 5-(4-((2-cyano-6-fluorobenzyl)amino)-5-phenylpyrrolo [2,1-f][1,2,4]triazin-2-yl)pyridine-3-sulfonamide] to `NS(=O)(=O)c1cncc(-c2nc(NCc3cccnc3)c3c(-c4ccccc4)ccn3n2)c1` [Example 158, 5-(5-phenyl-4-(pyridin-3-ylmethylamino)pyrrolo [1,2-f][1,2,4]triazin-2-yl)pyridine-3-sulfonamide], the inhibition at 0.3 µM rises from 87.7% to 92%.

First: NS(=O)(=O)c1cncc(-c2nc(NCc3cocn3)c3c(-c4ccccc4)ccn3n2)c1 [Example 142, 5-(4-((oxazol-4-ylmethyl)amino)-5-phenylpyrrolo [2,1-f][1,2,4]triazin-2-yl)pyridine-3-sulfonamide]
Second: NS(=O)(=O)c1cncc(-c2nc(NCc3cnccn3)c3c(-c4ccccc4)ccn3n2)c1 [Example 160, 5-(5-phenyl-4-(pyrazin-2-ylmethylamino)pyrrolo [1,2-f][1,2,4]triazin-2-yl)pyridine-3-sulfonamide]
The inhibition at 0.3 µM of the first is higher: 97.2% for the first, 94.7% for the second.

First: NS(=O)(=O)c1cncc(-c2nc(N3Cc4ccccc4C3)c3c(-c4ccccc4)ccn3n2)c1 [Example 143, 5-(4-(isoindolin-2-yl)-5-phenylpyrrolo [2,1-f][1,2,4]triazin-2-yl)pyridine-3-sulfonamide]
Second: NS(=O)(=O)c1cncc(-c2nc(N3Cc4cccnc4C3)c3c(-c4ccccc4)ccn3n2)c1 [Example 144, 5-(4-(5,7-dihydro-6H-pyrrolo[3,4-b]pyridin-6-yl)-5-phenylpyrrolo [2,1-f][1,2,4]triazin-2-yl)pyridine-3-sulfonamide]
The inhibition at 0.3 µM of the first is lower: 93.8% for the first, 99% for the second.

First: NS(=O)(=O)c1cncc(-c2nc(NCc3ncc[nH]3)c3c(-c4ccccc4)ccn3n2)c1 [Example 146, 5-(4-((1H-imidazol-2-yl)methylamino)-5-phenylpyrrolo [1,2-f][1,2,4]triazin-2-yl)pyridine-3-sulfonamide]
Second: NS(=O)(=O)c1cncc(-c2nc(NCc3nccs3)c3c(-c4ccccc4)ccn3n2)c1 [Example 163, 5-(5-phenyl-4-((thiazol-2-ylmethyl)amino)pyrrolo [2,1-f][1,2,4]triazin-2-yl)pyridine-3-sulfonamide]
The inhibition at 0.3 µM of the first is lower: 78.7% for the first, 97.5% for the second.

First: NS(=O)(=O)c1cccc(-c2nc(NCc3ccccc3)c3c(-c4ccccc4)ccn3n2)c1 [Example 149, 3-(4-(benzylamino)-5-phenylpyrrolo[1,2-f] [1,2,4]triazin-2-yl)benzenesulfonamide]
Second: NS(=O)(=O)c1cccc(-c2nc(NCc3ccccn3)c3c(-c4ccccc4)ccn3n2)c1 [Example 150, 3-(5-phenyl-4-(pyridin-2-ylmethylamino)pyrrolo [1,2-f][1,2,4]triazin-2-yl)benzenesulfonamide]
The inhibition at 0.3 µM of the first is lower: 95.8% for the first, 97.5% for the second.

First: Oc1ccc(-c2nc(NCc3ccccn3)c3c(-c4ccccc4)ccn3n2)cn1 [Example 151, 5-(5-phenyl-4-((pyridin-2-ylmethyl)amino)pyrrolo [2,1-f][1,2,4]triazin-2-yl)pyridin-2-ol]
Second: Oc1cc(-c2nc(NCc3ccccn3)c3c(-c4ccccc4)ccn3n2)ccn1 [Example 157, 4-(5-phenyl-4-((pyridin-2-ylmethyl)amino)pyrrolo [2,1-f][1,2,4]triazin-2-yl)pyridin-2-ol]
The inhibition at 0.3 µM of the first is lower: 94.2% for the first, 94.5% for the second.

Going from `NS(=O)(=O)c1cnc(O)c(-c2nc(NCc3ccccn3)c3c(-c4ccccc4)ccn3n2)c1` [Example 153, 6-hydroxy-5-(5-phenyl-4-((pyridin-2-ylmethyl)amino)pyrrolo [2,1-f][1,2,4]triazin-2-yl)pyridine-3-sulfonamide] to `NS(=O)(=O)c1cncc(-c2nc(NCc3ccncn3)c3c(-c4ccccc4)ccn3n2)c1` [Example 165, 5-(5-phenyl-4-((pyrimidin-4-ylmethyl)amino)pyrrolo [2,1-f][1,2,4]triazin-2-yl)pyridine-3-sulfonamide], the inhibition at 0.3 µM rises from 79.9% to 90.3%.

Compared with `NS(=O)(=O)c1cncc(-c2nc(NCc3cnccn3)c3c(-c4ccccc4)ccn3n2)n1` [Example 154, 6-(5-phenyl-4-((pyrazin-2-ylmethyl)amino)pyrrolo [2,1-f][1,2,4]triazin-2-yl)pyrazine-2-sulfonamide], `Nc1cncc(-c2nc(NCc3cnccn3)c3c(-c4ccccc4)ccn3n2)c1` [Example 161, 2-(5-aminopyridin-3-yl)-5-phenyl-N-(pyrazin-2-ylmethyl)pyrrolo[1,2-f] [1,2,4]triazin-4-amine] is higher in inhibition at 0.3 µM: 89.5% for the first, 97.9% for the second.

Compared with `NS(=O)(=O)c1cncc(-c2nc(NCCN3CCOCC3)c3c(-c4ccccc4)ccn3n2)c1` [Example 155, 5-(4-((2-morpholinoethyl)amino)-5-phenylpyrrolo [2,1-f][1,2,4]triazin-2-yl)pyridine-3-sulfonamide], `NS(=O)(=O)c1cncc(-c2nc(NCc3ccncc3)c3c(-c4ccccc4)ccn3n2)c1` [Example 159] is higher in inhibition at 0.3 µM: 30.2% for the first, 90% for the second.

Compared with `NS(=O)(=O)c1cncc(-c2nc(NCc3cnccn3)c3c(-c4ccccc4F)ccn3n2)c1` [Example 156, 5-(5-(2-fluorophenyl)-4-((pyrazin-2-ylmethyl)amino)pyrrolo [2,1-f][1,2,4]triazin-2-yl)pyridine-3-sulfonamide], `COC(=O)c1ccccc1CNc1nc(-c2cncc(S(N)(=O)=O)c2)nn2ccc(-c3ccccc3)c12` [Example 167, methyl 2-(((5-phenyl-2-(5-sulfamoylpyridin-3-yl)pyrrolo[2,1-f][1,2,4]triazin-4-yl)amino)methyl) benzoate] is lower in inhibition at 0.3 µM: 98.5% for the first, 89.8% for the second.

In the case of `Nc1cncc(-c2nc(NCc3ncccn3)c3c(-c4ccccc4)ccn3n2)c1` [Example 162, 2-(5-aminopyridin-3-yl)-5-phenyl-N-(pyrimidin-2-ylmethyl)pyrrolo[2,1-f] [1,2,4]triazin-4-amine], the inhibition at 0.3 µM is reported as 95.6%.

From patent publication US9050345B2, “Pyrrolotriazines as potassium ion channel inhibitors” (BRISTOL-MYERS SQUIBB COMPANY, priority 2013, dated 2015)
